In ChEMBL document CHEMBL4806968, “Hipk inhibitors and methods of use thereof” (2020) one finds inhibition and Activity data, which are given here for nine molecules.

The source made the active and inactive calls. No cut-off for these calls is given here.

Assay [1] addresses Platelet-derived growth factor receptor beta (Homo sapiens) (UniProt P09619). The experiment in a line: Inhibition of PDGFR-beta (unknown origin) at 0.5 uM relative to control.
Assay [2] has as its target T1, Ephrin type-A receptor 8 (Homo sapiens) (UniProt P29322).
T1 sequence (whole entry): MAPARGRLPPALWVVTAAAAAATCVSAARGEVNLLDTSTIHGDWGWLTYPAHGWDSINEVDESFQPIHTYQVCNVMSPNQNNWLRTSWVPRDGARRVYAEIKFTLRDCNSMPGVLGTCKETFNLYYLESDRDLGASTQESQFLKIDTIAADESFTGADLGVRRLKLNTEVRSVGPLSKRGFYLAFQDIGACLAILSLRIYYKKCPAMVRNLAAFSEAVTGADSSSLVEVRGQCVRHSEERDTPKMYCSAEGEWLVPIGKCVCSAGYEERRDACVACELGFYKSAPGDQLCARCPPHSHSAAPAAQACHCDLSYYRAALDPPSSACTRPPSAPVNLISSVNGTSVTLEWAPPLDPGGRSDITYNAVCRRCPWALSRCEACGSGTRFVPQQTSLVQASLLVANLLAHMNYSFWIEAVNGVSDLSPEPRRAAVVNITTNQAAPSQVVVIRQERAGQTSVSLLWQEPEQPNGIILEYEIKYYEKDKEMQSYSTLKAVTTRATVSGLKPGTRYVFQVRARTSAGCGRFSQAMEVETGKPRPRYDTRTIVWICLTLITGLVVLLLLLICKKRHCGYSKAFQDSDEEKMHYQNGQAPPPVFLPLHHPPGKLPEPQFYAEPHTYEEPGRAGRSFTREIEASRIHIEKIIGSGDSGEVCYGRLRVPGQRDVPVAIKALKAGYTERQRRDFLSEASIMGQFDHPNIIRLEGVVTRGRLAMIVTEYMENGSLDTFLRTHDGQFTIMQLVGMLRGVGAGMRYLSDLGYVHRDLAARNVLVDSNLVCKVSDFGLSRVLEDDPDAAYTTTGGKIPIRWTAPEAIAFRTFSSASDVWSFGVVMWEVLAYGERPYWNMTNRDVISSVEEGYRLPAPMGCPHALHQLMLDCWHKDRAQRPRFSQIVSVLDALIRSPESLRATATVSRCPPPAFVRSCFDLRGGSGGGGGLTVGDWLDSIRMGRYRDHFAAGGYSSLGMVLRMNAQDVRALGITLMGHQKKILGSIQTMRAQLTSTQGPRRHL
The assay is described as follows: Inhibition of EPHA8 (unknown origin) at 0.5 uM relative to control.

Assay [3] concerns the target RAF proto-oncogene serine/threonine-protein kinase (Homo sapiens) (UniProt P04049). The experiment in a line: Inhibition of CRAF (unknown origin) at 0.5 uM relative to control.
The target of assay [4] is Receptor-interacting serine/threonine-protein kinase 2 (Homo sapiens) (UniProt O43353). The assay is described as follows: Inhibition of RIPK2 (unknown origin) at 0.5 uM relative to control.
For assay [5], the target named is Tyrosine-protein kinase receptor UFO (Homo sapiens) (UniProt P30530). The experiment in a line: Inhibition of AXL (unknown origin) at 0.5 uM relative to control.
For assay [6], the system named is MDA-MB-231. The experiment in a line: Inhibition of FAK/pFAK protein expression in human MDA-MB-231 cells by Western blotting analysis. Format: functional, cell-based. (Immunoblotting shows a protein as a band on a membrane.)
Assay [7] relates to MDA-MB-231. The experiment in a line: Inhibition of HIPK4 protein expression in human MDA-MB-231 cells by Western blotting analysis. Format: functional, cell-based.
Assay [8] has as its target T2, Tyrosine-protein kinase Mer (Homo sapiens) (UniProt Q12866).
T2 sequence (whole entry): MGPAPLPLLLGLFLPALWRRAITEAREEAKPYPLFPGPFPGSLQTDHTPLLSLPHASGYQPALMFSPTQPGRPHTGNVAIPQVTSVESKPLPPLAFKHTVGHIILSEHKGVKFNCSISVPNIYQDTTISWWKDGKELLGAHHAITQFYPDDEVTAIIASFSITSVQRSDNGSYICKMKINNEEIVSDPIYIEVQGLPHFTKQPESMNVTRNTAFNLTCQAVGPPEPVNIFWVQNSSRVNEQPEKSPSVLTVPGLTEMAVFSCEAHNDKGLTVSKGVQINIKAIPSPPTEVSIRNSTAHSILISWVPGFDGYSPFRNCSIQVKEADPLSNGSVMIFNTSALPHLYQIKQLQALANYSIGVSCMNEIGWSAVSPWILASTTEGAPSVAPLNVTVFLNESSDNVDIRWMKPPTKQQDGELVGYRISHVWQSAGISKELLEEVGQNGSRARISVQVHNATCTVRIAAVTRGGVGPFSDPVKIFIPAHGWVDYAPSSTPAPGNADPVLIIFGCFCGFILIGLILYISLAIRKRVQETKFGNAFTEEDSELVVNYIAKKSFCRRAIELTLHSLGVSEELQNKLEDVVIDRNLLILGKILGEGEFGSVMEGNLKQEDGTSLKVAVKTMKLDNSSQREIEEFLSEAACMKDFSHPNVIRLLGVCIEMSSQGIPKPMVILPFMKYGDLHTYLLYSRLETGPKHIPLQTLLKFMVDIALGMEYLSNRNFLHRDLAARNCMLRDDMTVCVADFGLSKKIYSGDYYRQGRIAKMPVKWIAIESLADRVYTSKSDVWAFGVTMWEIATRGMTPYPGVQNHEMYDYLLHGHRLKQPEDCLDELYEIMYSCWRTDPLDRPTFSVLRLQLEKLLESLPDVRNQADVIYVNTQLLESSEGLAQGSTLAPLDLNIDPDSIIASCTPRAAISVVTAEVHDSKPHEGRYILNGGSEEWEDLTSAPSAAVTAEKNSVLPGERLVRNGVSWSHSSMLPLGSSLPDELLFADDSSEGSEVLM
The experiment in a line: Inhibition of MER (unknown origin) at 0.5 uM relative to control.

The test system of assay [9] is MDA-MB-231. The experiment in a line: Inhibition of cell migration in human MDA-MB-231 cells. Format: functional, cell-based.
In assay [10] the target is Homeodomain-interacting protein kinase 2 (Homo sapiens) (UniProt Q9H2X6). The experiment in a line: Inhibition of HIPK2 (unknown origin) assessed as effect on HIPK2 protein level by Western blotting analysis.
The test system of the next assay is GILM3. The experiment in a line: Inhibition of cell migration in human GILM3 cells at 1 to 10 uM. Format: functional, cell-based. The settings on record: dose 1-10 µM.
In assay [11] the target is Ephrin type-A receptor 4 (Homo sapiens) (UniProt P54764). The assay is described as follows: Inhibition of EPHA4 (unknown origin) at 0.5 uM relative to control.
Assay [12] has as its target Angiopoietin-1 receptor (Homo sapiens) (UniProt Q02763). The experiment in a line: Inhibition of TIE2 (unknown origin) at 0.5 uM relative to control.
The target in assay [13] is Ephrin type-A receptor 5 (Homo sapiens) (UniProt P54756). The assay is described as follows: Inhibition of EPH-A5 (unknown origin) at 0.5 uM relative to control.

Usually inhibition stands for how much of the control response was suppressed.

Sequence of Platelet-derived growth factor receptor beta (Homo sapiens) (P09619 whole entry): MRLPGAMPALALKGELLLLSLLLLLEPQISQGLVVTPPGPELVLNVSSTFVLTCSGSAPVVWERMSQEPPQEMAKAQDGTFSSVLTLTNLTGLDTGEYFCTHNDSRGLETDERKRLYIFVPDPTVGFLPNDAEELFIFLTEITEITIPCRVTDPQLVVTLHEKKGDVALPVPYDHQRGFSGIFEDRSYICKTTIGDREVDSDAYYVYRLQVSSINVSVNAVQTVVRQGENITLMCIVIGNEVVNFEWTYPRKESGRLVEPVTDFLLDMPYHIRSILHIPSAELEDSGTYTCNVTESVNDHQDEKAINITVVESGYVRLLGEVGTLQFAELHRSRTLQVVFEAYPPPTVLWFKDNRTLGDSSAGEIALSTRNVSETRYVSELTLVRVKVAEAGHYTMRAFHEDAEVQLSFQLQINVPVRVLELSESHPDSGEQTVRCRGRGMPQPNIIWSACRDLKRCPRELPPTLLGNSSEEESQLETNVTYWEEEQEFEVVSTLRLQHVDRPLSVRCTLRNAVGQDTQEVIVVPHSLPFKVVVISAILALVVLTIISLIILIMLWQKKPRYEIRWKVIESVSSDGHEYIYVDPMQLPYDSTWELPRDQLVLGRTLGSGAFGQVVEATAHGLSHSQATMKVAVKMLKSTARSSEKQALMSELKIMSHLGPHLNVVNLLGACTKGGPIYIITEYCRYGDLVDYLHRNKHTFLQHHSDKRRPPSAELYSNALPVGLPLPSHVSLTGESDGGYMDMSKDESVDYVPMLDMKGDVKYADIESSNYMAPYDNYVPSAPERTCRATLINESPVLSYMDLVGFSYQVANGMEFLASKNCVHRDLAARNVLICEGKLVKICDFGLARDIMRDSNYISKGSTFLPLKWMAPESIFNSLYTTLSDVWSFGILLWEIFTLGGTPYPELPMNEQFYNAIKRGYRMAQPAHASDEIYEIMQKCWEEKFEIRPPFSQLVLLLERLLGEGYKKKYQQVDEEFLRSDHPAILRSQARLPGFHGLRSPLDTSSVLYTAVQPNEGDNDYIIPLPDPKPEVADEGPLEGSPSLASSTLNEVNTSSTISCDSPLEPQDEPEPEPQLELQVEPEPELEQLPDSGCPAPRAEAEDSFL
Sequence of Ephrin type-A receptor 4 (Homo sapiens) (P54764 whole entry): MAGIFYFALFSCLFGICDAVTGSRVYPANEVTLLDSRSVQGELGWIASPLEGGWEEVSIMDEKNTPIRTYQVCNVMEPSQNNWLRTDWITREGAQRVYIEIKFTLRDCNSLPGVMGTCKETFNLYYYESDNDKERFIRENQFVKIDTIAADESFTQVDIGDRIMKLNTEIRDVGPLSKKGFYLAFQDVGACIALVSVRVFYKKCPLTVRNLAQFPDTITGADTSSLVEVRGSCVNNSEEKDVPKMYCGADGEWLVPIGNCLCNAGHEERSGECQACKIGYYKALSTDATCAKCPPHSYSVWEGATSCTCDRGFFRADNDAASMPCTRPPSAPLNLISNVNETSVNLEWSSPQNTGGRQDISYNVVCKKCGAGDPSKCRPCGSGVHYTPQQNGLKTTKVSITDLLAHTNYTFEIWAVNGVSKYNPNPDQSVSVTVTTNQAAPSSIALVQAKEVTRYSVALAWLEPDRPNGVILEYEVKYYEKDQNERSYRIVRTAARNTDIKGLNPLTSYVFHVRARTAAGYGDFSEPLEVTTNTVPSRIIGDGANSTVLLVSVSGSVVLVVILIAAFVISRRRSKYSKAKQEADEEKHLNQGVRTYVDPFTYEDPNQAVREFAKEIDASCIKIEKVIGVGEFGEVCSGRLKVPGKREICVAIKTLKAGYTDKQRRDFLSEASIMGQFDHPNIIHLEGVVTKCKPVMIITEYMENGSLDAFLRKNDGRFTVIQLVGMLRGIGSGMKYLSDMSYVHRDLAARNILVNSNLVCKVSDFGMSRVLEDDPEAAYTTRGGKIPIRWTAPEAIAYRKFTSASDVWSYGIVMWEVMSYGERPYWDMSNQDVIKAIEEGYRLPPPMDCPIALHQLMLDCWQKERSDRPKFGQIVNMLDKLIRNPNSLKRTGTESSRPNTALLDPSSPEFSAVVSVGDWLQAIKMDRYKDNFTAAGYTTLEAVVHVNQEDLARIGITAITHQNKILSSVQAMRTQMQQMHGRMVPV
Sequence of Ephrin type-A receptor 5 (Homo sapiens) (P54756 whole entry): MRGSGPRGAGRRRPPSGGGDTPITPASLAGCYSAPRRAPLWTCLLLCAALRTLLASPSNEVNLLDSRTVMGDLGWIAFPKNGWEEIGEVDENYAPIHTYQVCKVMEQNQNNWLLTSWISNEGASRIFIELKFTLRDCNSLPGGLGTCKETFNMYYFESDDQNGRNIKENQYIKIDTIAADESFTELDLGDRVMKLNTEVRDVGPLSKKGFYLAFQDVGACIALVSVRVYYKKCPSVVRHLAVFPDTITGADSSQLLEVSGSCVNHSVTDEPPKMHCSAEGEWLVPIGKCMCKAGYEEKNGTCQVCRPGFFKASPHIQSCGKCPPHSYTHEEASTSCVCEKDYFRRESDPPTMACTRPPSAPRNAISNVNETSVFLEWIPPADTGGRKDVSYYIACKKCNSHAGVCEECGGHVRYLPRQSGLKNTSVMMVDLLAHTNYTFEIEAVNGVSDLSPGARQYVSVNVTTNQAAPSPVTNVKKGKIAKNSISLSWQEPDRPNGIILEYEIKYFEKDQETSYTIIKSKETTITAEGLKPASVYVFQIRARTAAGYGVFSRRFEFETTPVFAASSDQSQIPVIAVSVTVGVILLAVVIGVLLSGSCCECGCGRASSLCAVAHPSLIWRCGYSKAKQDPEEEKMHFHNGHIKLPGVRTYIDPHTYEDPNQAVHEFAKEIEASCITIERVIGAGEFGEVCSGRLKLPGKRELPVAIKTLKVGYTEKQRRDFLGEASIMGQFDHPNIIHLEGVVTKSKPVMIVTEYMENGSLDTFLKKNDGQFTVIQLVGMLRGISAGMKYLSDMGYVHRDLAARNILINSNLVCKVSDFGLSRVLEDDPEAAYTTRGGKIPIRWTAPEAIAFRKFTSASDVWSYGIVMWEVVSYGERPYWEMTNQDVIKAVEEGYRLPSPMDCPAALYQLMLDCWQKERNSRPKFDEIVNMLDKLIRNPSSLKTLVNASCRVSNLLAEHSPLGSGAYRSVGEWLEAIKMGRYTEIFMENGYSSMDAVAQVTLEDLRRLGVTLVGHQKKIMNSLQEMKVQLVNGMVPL
Sequence of RAF proto-oncogene serine/threonine-protein kinase (Homo sapiens) (P04049 whole entry): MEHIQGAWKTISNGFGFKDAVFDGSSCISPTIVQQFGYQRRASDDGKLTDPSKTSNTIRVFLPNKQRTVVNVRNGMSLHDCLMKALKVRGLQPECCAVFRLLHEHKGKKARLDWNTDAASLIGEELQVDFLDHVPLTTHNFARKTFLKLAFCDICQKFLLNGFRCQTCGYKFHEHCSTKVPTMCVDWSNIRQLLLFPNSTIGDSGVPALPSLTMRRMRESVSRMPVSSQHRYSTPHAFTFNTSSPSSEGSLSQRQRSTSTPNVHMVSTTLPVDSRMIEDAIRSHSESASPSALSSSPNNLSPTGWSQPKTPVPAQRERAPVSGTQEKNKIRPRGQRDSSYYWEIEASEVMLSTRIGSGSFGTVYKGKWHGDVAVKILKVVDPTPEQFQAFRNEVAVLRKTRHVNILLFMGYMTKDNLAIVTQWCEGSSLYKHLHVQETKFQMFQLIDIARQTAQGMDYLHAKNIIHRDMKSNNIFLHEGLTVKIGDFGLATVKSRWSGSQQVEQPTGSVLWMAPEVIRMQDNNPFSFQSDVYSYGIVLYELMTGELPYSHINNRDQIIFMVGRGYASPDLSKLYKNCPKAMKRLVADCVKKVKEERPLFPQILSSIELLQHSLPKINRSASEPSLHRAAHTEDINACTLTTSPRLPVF
Sequence of Angiopoietin-1 receptor (Homo sapiens) (Q02763 whole entry): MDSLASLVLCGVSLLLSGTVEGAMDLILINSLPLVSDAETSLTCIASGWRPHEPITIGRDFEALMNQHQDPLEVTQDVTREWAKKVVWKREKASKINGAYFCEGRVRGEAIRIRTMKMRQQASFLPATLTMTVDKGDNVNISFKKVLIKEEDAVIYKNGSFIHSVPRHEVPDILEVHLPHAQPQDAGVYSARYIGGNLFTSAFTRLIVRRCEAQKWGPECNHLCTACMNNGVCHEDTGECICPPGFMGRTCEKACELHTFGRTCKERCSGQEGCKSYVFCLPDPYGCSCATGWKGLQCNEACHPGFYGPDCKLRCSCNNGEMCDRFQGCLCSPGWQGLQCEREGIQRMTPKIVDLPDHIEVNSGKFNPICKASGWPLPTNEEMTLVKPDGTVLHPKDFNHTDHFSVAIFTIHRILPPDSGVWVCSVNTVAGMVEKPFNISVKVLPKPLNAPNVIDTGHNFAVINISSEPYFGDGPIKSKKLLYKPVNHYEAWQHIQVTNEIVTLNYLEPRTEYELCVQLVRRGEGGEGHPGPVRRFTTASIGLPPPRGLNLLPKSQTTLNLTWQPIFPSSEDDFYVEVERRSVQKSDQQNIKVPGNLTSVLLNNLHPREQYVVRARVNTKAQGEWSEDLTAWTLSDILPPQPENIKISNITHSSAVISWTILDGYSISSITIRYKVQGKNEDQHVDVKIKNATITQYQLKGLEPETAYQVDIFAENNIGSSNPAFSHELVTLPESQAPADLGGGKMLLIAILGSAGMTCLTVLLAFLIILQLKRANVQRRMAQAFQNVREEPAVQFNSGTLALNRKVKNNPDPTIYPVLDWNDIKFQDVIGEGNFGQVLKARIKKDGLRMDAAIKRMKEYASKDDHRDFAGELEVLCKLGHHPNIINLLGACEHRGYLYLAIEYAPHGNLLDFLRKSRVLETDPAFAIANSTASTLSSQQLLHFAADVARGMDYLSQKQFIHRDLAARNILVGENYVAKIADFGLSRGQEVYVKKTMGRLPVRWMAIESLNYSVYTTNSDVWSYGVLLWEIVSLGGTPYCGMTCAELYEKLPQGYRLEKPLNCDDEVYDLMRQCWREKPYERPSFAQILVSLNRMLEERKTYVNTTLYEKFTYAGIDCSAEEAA

Take `CNC(=O)c1cc(Oc2ccc(NC(=O)c3n[nH]nc3-c3ccc(F)cc3)cc2)ccn1`: the inhibition in assay [1] amounted to 60%; in assay [2], 51%; in [3], 57%; in assay [4], 65%.
On to `CNC(=O)c1cc(Oc2ccc(NC(=O)c3nc(SC)n(CCN(C)C)c3-c3ccc(F)cc3)cc2)ccn1`, for which the inhibition was found to be 70% in assay [1] and 64% in assay [5].
Consider `CNC(=O)c1cc(Oc2ccc(NC(=O)c3nc(SC)oc3-c3ccc(F)cc3)cc2)ccn1`, for which the inhibition entry in the assay on MDA-MB-231 [6], in the assay with MDA-MB-231 [7], in the assay with MDA-MB-231 [9] and in the assay with GILM3 was “Active” each time. Besides, the inhibition in assay [1] worked out at 55%; in assay [8], 55%; in assay [2], 54%; in assay [4], 63%. For the same molecule, in [10], the outcome was inactive.
In the case of `CNC(=O)c1cc(Oc2ccc(NC(=O)c3nc(SC)oc3-c3ccc(F)cc3)cc2F)ccn1`, the inhibition stood at 38% in assay [11], 40% in assay [1], 41% in [8] and 51% in assay [4].
Consider `CNC(=O)c1cc(Oc2ccc(NC(=O)c3nc(S(C)(=O)=O)sc3-c3ccc(F)cc3)cc2)ccn1`, for which the inhibition result with MDA-MB-231 [6], with MDA-MB-231 [7], with MDA-MB-231 [9] and with GILM3 was “Active” in each case. The inhibition in assay [11] was found to be 18%; in assay [8], 60%; in assay [2], 54%; in [3], 11%; in [5], 83%; in [12], 53%. In [13], this molecule returned an inhibition of 21%. Further, in assay [10], the result was inactive.
On to `CSc1nc(C(=O)Nc2ccc(Oc3cc4cnn(C)c4cc3Br)cc2)c(-c2ccc(F)cc2)o1`, for which, in [12], the inhibition was determined as 25%.
Turning to `CNC(=O)c1cc(Oc2ccc(NC(=O)c3nc(NC)sc3-c3ccc(F)cc3)cc2)ccn1`, the inhibition was 61% in [1]; 63% in assay [3]; 43% in assay [12]; 50% in assay [13]; 40% in assay [4].
On to `CNC(=O)c1cc(Oc2ccc(NC(=O)c3nc(C(F)(F)F)sc3-c3ccc(F)cc3)cc2)ccn1`, for which the inhibition stood at 49% in assay [8] and 52% in [5].
Turning to `CNC(=O)c1cc(Oc2ccc(NC(=O)c3nc(SC)[nH]c3-c3ccc(F)cc3)cc2)ccn1`, the inhibition entry in the assay on MDA-MB-231 [6], in the assay on MDA-MB-231 [7], in the assay on MDA-MB-231 [9] and in the assay on GILM3 was “Active” throughout. The inhibition in assay [11] worked out at 92%; in assay [8], 91%; in [5] it was 91%; in assay [12] it was 88%; in assay [13] it was 85%. For the same molecule, the result in assay [10] was inactive.
